Data from patent publication US9247759B2, “Identification of human T2R receptors that respond to bitter compounds that elicit the bitter taste in compositions, and the use thereof in assays to identify compounds that inhibit (block) bitter taste in compositions and use thereof” (SENOMYX, INC., priority 2007, dated 2016).

Tests used:
[1] = molecular target: hT2R51 (Homo sapiens (Human), UniProt P59533); assay: hT2R panel inhibition, transient HEK293 G16g44, agonist Prop 2.5 μM; type: cell-based; conditions: HEK293, compound at 25 μM; receptor activated to EC80 with the corresponding agonist; read-out: screening result against bitter receptor 51
Sequence of hT2R51 (P59533 whole entry): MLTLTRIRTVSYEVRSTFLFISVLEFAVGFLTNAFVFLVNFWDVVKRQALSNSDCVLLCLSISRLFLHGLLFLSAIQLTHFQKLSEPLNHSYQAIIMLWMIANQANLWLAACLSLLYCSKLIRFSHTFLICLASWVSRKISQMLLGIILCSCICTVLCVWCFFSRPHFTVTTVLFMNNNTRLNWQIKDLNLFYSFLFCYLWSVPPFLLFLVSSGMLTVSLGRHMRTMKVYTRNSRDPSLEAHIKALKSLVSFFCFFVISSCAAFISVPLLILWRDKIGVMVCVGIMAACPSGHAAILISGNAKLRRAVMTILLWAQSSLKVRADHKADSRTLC
Procedure: (§1) Specifically, in order to evaluate the inhibitory selectivity of the Compound C compound, this compound was tested against 22 human T2Rs which were deorphaned by Senomyx. These receptors and the bitter ligands that activate these human T2Rs are reported in earlier patent applications which are incorporated by reference herein. These 22 human T2Rs are hT2R1, 3, 4, 5, 7, 8, 9, 10, 13, 14, 16, 44, 51, 54, 55, 61, 63, 64, 65, 67, 71 and 75. The amino acid and nucleic acid sequences of all of these T2Rs may be found in these earlier patent applications. These human T2Rs were each individually transiently transfected into HEK293 cells that stably express the promiscuous G protein G16g44 and functional assays were effected using these receptors as disclosed in these same patent applications. […] The ligands were used at EC80 concentration levels. The list of bitter ligands utilized and the tested ligand concentrations are contained in Table 5 of this example.
(§2) Relating to the foregoing, FIG. 5 contains experimental results wherein Compound C was tested with different agonist compounds. The inhibition activity is represented by the reduction of receptor activity in the presence of Compound C. […] These 13 hT2Rs are hT2R3, 7, 10, 14, 16, 44, 51, 55, 61, 63, 64, 65, and 71.

[2] = molecular target: hT2R16 (Homo sapiens (Human), UniProt Q9NYV7); assay: hT2R panel inhibition, transient HEK293 G16g44, agonist Salicin 1 mM; type: cell-based; conditions: HEK293, compound at 25 μM; receptor activated to EC80 with the corresponding agonist; read-out: screening result against bitter receptor 16
Sequence of hT2R16 (Q9NYV7 whole entry): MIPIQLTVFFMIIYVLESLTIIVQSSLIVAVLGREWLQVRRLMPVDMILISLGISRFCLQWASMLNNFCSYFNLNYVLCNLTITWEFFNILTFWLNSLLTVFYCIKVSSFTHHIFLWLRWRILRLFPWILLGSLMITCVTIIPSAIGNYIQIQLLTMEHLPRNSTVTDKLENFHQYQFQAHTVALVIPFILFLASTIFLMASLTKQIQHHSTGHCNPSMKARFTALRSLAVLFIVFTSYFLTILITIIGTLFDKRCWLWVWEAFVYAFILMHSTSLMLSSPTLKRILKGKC
Summary of the method: (§3)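 Compound C tested for reduction of receptor activity evoked by EC80-level bitter agonists, receptor by receptor. Assay cells: HEK293 line stably carrying promiscuous G protein G16g44, transiently transfected with individual human T2Rs.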

[3] = molecular target: hT2R64 (Homo sapiens (Human), UniProt P59538); assay: hT2R panel inhibition, transient HEK293 G16g44, agonist Aristolochic Acid 1 μM; type: cell-based; conditions: HEK293, compound at 25 μM; receptor activated to EC80 with the corresponding agonist; read-out: screening result against bitter receptor 64
Sequence of hT2R64 (P59538 whole entry): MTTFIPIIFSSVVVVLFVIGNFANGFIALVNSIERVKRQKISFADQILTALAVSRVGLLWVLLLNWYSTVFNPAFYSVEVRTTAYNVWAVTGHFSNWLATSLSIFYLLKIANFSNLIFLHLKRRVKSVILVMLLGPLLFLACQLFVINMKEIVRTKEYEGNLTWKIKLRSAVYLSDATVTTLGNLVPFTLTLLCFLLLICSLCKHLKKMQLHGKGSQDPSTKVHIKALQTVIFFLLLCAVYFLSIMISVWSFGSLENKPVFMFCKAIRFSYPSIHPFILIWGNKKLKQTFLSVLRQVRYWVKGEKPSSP
Summary of the method: as §3

[4] = molecular target: hT2R14 (Homo sapiens (Human), UniProt Q9NYV8); assay: hT2R panel inhibition, transient HEK293 G16g44, agonist Aristolochic Acid 2 μM; type: cell-based; conditions: HEK293, compound at 25 μM; receptor activated to EC80 with the corresponding agonist; read-out: screening result against bitter receptor 14
Sequence of hT2R14 (Q9NYV8 whole entry): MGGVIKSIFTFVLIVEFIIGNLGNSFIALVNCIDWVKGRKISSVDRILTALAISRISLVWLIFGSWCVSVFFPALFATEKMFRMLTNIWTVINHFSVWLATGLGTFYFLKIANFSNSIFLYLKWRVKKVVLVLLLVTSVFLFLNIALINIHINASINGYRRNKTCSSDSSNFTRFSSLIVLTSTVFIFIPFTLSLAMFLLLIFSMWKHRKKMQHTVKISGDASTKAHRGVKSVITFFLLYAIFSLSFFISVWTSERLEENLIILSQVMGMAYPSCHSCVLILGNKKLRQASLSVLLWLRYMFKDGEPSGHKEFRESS
Summary of the method: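 Agonist challenge was at EC80, with 0.5 mM andrographolide on hT2R8 and 2 μM aristolochic acid on hT2R14. Inhibition was measured in functional assays in HEK293 cells that stably carry the promiscuous G protein G16g44 and were transiently transfected with the individual receptor.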

[5] = molecular target: hT2R61 (Homo sapiens (Human), UniProt P59537); assay: hT2R panel inhibition, transient HEK293 G16g44, agonist Aristolochic Acid 25 nM; type: cell-based; conditions: HEK293, compound at 25 μM; receptor activated to EC80 with the corresponding agonist; read-out: screening result against bitter receptor 61
Sequence of hT2R61 (P59537 whole entry): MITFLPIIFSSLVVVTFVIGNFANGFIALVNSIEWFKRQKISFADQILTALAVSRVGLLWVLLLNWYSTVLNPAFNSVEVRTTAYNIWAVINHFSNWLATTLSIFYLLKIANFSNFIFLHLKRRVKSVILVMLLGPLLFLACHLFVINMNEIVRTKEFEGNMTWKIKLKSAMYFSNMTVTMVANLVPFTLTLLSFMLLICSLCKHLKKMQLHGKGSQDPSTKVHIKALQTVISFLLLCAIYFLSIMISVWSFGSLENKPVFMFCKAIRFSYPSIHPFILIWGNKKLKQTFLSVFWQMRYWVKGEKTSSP
Summary of the method: as §3

[6] = molecular target: hT2R7 (Homo sapiens (Human), UniProt Q9NYW3); assay: hT2R panel inhibition, transient HEK293 G16g44, agonist Chloroquine pH6.5 10 mM; type: cell-based; conditions: HEK293, compound at 25 μM; receptor activated to EC80 with the corresponding agonist; read-out: screening result against bitter receptor 7
Sequence of hT2R7 (Q9NYW3 whole entry): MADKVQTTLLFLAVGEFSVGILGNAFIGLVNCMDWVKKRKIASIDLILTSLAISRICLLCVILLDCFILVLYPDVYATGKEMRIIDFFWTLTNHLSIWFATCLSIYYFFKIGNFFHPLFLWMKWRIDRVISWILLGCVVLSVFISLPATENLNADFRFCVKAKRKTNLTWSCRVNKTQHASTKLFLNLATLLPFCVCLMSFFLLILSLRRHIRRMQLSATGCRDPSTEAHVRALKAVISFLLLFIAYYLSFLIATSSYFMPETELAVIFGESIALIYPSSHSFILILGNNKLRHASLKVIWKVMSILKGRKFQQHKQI
Summary of the method: as §3

[7] = molecular target: hT2R10 (Homo sapiens (Human), UniProt Q9NYW0); assay: hT2R panel inhibition, transient HEK293 G16g44, agonist Strychnine 50 μM; type: cell-based; conditions: HEK293, read-out: screening result against bitter receptor 10, compound at 25 μM; receptor activated to EC80 with the corresponding agonist
Sequence of hT2R10 (Q9NYW0 whole entry): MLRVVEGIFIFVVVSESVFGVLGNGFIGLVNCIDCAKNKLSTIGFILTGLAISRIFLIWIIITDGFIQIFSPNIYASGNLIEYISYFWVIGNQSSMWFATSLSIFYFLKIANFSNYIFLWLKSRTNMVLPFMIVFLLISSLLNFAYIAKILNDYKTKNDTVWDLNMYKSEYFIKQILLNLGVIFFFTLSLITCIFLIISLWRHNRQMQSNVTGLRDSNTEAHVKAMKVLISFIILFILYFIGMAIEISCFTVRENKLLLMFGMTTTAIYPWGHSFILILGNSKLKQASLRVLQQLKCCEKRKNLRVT

[8] = tested on: hT2R63; assay: hT2R panel inhibition, transient HEK293 G16g44, agonist Caffeine 1 mM or Andrographolide 100 μM; type: cell-based, human; conditions: compound at 25 μM; receptor activated to EC80 with the corresponding agonist
Summary of the method: as §3

[9] = tested on: hT2R54; assay: hT2R panel inhibition, transient HEK293 G16g44, agonist Ranitidine 5 mM; type: cell-based, human; conditions: compound at 25 μM; receptor activated to EC80 with the corresponding agonist
Summary of the method: as §3

[10] = tested on: hT2R55; assay: hT2R panel inhibition, transient HEK293 G16g44, agonist Cinchonine 150 μM; type: cell-based, human; conditions: compound at 25 μM; receptor activated to EC80 with the corresponding agonist
Summary of the method: as §3

[11] = tested on: hT2R65; assay: hT2R panel inhibition, transient HEK293 G16g44, agonist Oleuropein 1 mM; type: cell-based, human; conditions: compound at 25 μM; receptor activated to EC80 with the corresponding agonist
Summary of the method: as §3

[12] = molecular target: hT2R75 (Homo sapiens (Human), UniProt P59540); assay: hT2R panel inhibition, transient HEK293 G16g44, agonist Strychnine 1 μM; type: cell-based; conditions: HEK293, read-out: screening result against bitter receptor 75, compound at 25 μM; receptor activated to EC80 with the corresponding agonist
Sequence of hT2R75 (P59540 whole entry): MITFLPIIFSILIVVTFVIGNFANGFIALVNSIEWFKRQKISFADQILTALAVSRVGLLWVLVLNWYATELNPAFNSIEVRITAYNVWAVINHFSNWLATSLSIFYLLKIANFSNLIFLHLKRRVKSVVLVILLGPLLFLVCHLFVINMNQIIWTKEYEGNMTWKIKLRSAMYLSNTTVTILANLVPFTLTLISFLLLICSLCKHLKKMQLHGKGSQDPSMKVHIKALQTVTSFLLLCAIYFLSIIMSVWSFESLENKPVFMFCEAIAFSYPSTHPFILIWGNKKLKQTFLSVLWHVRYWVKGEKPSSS
Procedure: as §1, §2

[13] = molecular target: hT2R5 (Homo sapiens (Human), UniProt Q9NYW4); assay: hT2R panel inhibition, transient HEK293 G16g44, agonist Picoline 10 mM; type: cell-based; conditions: HEK293, compound at 25 μM; receptor activated to EC80 with the corresponding agonist; read-out: screening result against bitter receptor 5
Sequence of hT2R5 (Q9NYW4 whole entry): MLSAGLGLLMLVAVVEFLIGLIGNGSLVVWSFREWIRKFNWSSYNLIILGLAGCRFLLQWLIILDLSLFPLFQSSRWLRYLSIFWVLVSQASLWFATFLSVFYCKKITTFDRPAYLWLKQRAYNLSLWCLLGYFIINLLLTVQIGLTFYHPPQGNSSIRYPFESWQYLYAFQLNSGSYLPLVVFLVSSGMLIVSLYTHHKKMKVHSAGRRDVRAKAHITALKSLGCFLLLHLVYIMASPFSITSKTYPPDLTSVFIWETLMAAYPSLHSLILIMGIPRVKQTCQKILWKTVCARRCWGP
Summary of the method: as §3

[14] = tested on: hT2R67; assay: hT2R panel inhibition, transient HEK293 G16g44, agonist Andrographolide 5 μM; type: cell-based, human; conditions: compound at 25 μM; receptor activated to EC80 with the corresponding agonist
Summary of the method: as §3

[15] = molecular target: hT2R3 (Homo sapiens (Human), UniProt Q9NYW6); assay: hT2R panel inhibition, transient HEK293 G16g44, agonist Chloroquine pH6.5 50 μM; type: cell-based; conditions: HEK293, compound at 25 μM; receptor activated to EC80 with the corresponding agonist; read-out: screening result against bitter receptor 3
Sequence of hT2R3 (Q9NYW6 whole entry): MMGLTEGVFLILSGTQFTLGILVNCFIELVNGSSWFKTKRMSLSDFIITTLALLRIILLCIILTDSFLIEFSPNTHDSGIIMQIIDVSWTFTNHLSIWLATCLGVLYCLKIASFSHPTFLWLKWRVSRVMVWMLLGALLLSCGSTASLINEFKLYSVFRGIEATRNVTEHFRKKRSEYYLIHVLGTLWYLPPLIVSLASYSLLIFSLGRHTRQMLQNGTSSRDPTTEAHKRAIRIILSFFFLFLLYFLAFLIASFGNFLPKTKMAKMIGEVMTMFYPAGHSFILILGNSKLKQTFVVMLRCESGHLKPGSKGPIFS
Summary of the method: as §3

[16] = molecular target: hT2R71 (Homo sapiens (Human), UniProt P59536); assay: hT2R panel inhibition, transient HEK293 G16g44, agonist Picric Acid 10 μM; type: cell-based; conditions: HEK293, compound at 25 μM; receptor activated to EC80 with the corresponding agonist; read-out: screening result against bitter receptor 71
Sequence of hT2R71 (P59536 whole entry): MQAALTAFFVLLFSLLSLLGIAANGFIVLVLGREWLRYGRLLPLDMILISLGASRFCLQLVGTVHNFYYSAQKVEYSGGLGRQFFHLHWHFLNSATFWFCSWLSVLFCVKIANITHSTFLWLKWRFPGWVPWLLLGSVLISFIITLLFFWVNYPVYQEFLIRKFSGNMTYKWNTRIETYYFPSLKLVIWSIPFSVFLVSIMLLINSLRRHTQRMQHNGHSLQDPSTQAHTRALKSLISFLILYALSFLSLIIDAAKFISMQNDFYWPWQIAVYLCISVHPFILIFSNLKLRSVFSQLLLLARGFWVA
Summary of the method: as §3

[17] = tested on: hT2R44; assay: hT2R panel inhibition, transient HEK293 G16g44, agonist Denatonium 0.5 μM; type: cell-based, human; conditions: compound at 25 μM; receptor activated to EC80 with the corresponding agonist
Summary of the method: as §3

Row | SMILES | inhibition at 25 µM [1] | inhibition at 25 µM [2] | inhibition at 25 µM [3] | inhibition at 25 µM [4] | inhibition at 25 µM [5] | inhibition at 25 µM [6] | inhibition at 25 µM [7] | screening result against bitter receptor 63 [8] | screening result against bitter receptor 54 [9] | screening result against bitter receptor 55 [10] | screening result against bitter receptor 65 [11] | inhibition at 25 µM [12] | inhibition at 25 µM [13] | screening result against bitter receptor 67 [14] | inhibition at 25 µM [15] | inhibition at 25 µM [16] | screening result against bitter receptor 44 [17]
1 | COc1ccc(CN(Cc2ccccc2OC)S(=O)(=O)c2ccc(C(=O)O)cc2)cc1 [Example 5-58, 4-(N-(2-methoxybenzyl)-N-(4-methoxybenzyl)sulfamoyl)benzoic acid] | 20 to 40% | 20 to 40% | 60 to 80% | > 80% | > 80% | 60 to 80% | 60 to 80% | ++++ (80% or greater inhibition = ++++) | +++ (60% to 80% inhibition = +++) | +++ (60% to 80% inhibition = +++) | ++++ (80% or greater inhibition = ++++) | 20 to 40% | 20 to 40% | + (20% to 40% inhibition = +) | 60 to 80% | > 80% | +++ (60% to 80% inhibition = +++)
2 | COc1ccccc1CN(Cc1ccccc1)S(=O)(=O)c1ccc(C(=O)O)cc1 [Example 5-71, 4-(N-benzyl-N-(2-methoxybenzyl)sulfamoyl)benzoic acid] | 40 to 60% | 20 to 40% | 20 to 40% | > 80% | > 80% | 20 to 40% | 20 to 40% | ++++ (80% or greater inhibition = ++++) | +++ (60% to 80% inhibition = +++) | ++ (40% to 60% inhibition = ++) | ++ (40% to 60% inhibition = ++) | 20 to 40% | 20 to 40% | + (20% to 40% inhibition = +) | 20 to 40% | 40 to 60% | 
3 | Cc1cccc(CN(Cc2ccccc2)S(=O)(=O)c2ccc(C(=O)O)cc2)c1 [Example 5-73, 4-(N-benzyl-N-(3-methylbenzyl)sulfamoyl)benzoic acid] | > 80% | 20 to 40% | 20 to 40% | > 80% | 60 to 80% | 20 to 40% | 40 to 60% | ++++ (80% or greater inhibition = ++++) | +++ (60% to 80% inhibition = +++) | ++ (40% to 60% inhibition = ++) | ++ (40% to 60% inhibition = ++) | 20 to 40% | 20 to 40% | + (20% to 40% inhibition = +) | 40 to 60% | 40 to 60% | 
4 | CSc1ccc(CN(Cc2ccccc2)S(=O)(=O)c2ccc(C(=O)O)cc2)cc1 [Example 5-78, 4-(N-benzyl-N-(4-(methylthio)benzyl)sulfamoyl)benzoic acid] | 20 to 40% | 20 to 40% | 40 to 60% | > 80% | > 80% |  | 20 to 40% | +++ (60% to 80% inhibition = +++) | + (20% to 40% inhibition = +) | +++ (60% to 80% inhibition = +++) | +++ (60% to 80% inhibition = +++) | 20 to 40% | 20 to 40% | + (20% to 40% inhibition = +) | 20 to 40% | 40 to 60% | + (20% to 40% inhibition = +)
5 | O=C(O)c1ccc(S(=O)(=O)N(Cc2ccccc2)Cc2cccc(Cl)c2)cc1 [Example 5-84, 4-(N-benzyl-N-(3-chlorobenzyl)sulfamoyl)benzoic acid] | 60 to 80% | 20 to 40% | 20 to 40% | > 80% | > 80% |  | 20 to 40% | +++ (60% to 80% inhibition = +++) | ++ (40% to 60% inhibition = ++) | +++ (60% to 80% inhibition = +++) | +++ (60% to 80% inhibition = +++) | 20 to 40% | 20 to 40% | + (20% to 40% inhibition = +) | 40 to 60% | 20 to 40% | + (20% to 40% inhibition = +)
6 | COc1ccc(CN(C(C)c2ccccc2)S(=O)(=O)c2ccc(C(=O)O)cc2)cc1 (stereo not shown) [Example 5-95, 4-(N-(4-methoxybenzyl)-N-(1-phenylethyl)sulfamoyl)benzoic acid] | 20 to 40% | 40 to 60% | 60 to 80% | > 80% | > 80% | 20 to 40% | 20 to 40% | ++++ (80% or greater inhibition = ++++) |  | ++++ (80% or greater inhibition = ++++) | +++ (60% to 80% inhibition = +++) | 20 to 40% | 20 to 40% | + (20% to 40% inhibition = +) | 40 to 60% | 40 to 60% | +++ (60% to 80% inhibition = +++)
